Measured values published in US20220289753A1, “SHP2 INHIBITORS” (IRBM S.P.A., priority 2019, published 2022).

What was measured:
[1] = target: T1, SHP-2 enzyme (Met1-Leu525) (Homo sapiens, UniProt Q06124); test: SHP2 inhibition enzymatic assay (DiFMUP substrate, IRS1 peptide activation); type: biochemical; details: SHP2 wt; activated by 500 nM IRS1 peptide; 75 μM DiFMUP substrate
T1 construct: synthetized by Origene, Met1-Leu525, cat #TP750155; purchased Origene TP750155
T1 sequence (Q06124 1-525): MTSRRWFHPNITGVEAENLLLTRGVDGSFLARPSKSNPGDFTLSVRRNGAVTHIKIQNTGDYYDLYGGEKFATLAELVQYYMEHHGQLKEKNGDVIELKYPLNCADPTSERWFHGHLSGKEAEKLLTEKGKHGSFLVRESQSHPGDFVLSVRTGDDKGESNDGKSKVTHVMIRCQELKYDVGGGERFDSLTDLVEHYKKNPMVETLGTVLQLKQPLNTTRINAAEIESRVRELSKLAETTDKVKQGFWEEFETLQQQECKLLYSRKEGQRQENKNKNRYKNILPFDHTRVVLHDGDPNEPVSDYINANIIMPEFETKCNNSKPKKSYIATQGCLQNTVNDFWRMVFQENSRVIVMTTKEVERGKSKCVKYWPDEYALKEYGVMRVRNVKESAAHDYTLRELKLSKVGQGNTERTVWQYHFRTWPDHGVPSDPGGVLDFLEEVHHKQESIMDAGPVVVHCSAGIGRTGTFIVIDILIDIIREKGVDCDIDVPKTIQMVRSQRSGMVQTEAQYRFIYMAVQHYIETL
Outline: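 SHP-2 (Met1-Leu525, 0.5 nM final) preincubated 30 min with compounds and IRS1 activating peptide in HEPES pH 7.2 buffer with NaCl, KCl, EDTA, tween-20, 5 mM DTT. DiFMUP then added for 30 min at room temperature and fluorescence read. IC50 from four-parameter logistic fit of % inhibition.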

[2] = system: ERK phosphorylation in KYSE-520 cells; test: Phospho-ERK cellular assay (Advanced phospho-ERK1/2 (Thr202/Tyr204) TR-FRET kit); type: cell-based; details: Homo sapiens, KYSE-520, 2 h, KYSE-520 cells, 2 h at 37° C., TR-FRET; read-out: pERK IC50
Outline: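 IC50 values are inflection points of four-parameter logistic fits of percent activity against compound dilution. Compound exposure lasted 2 h at 37° C in KYSE-520 cells. Lysates were probed overnight with Eu-cryptate/d2 antibodies to ERK1/2 phosphorylated at Thr202/Tyr204, so reduced TR-FRET indicates SHP2 inhibition.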

With `N[C@@H]1c2ccccc2CC12CCN(c1nc3ncc(Sc4cccc5nccnc45)nc3[nH]1)CC2` [Example 179, (S)-1′-(5-(quinoxalin-5-ylthio)-1H-imidazo[4,5-b]pyrazin-2-yl)-1,3-dihydrospiro[indene-2,4′-piperidin]-1-amine] the IC50 [1] was < 500 nM and the IC50 [2] was < 1000 nM.

For `N[C@@H]1c2ccccc2CC12CCN(c1nc3ncc(Sc4ccnc(N5CCOCC5)c4Cl)nc3[nH]1)CC2` [Example 180, (S)-1′-(5-((3-chloro-2-morpholinopyridin-4-yl)thio)-1H-imidazo[4,5-b]pyrazin-2-yl)-1,3-dihydrospiro[indene-2,4′-piperidin]-1-amine], the IC50 [1] was < 500 nM and the IC50 [2] was < 1000 nM.

For `COC1CN(c2nccc(Sc3cnc4nc(N5CCC6(CC5)Cc5ccccc5[C@H]6N)[nH]c4n3)c2Cl)C1` [Example 181, (S)-1′-(5-((3-chloro-2-(3-methoxyazetidin-1-yl)pyridin-4-yl)thio)-1H-imidazo[4,5-b]pyrazin-2-yl)-1,3-dihydrospiro[indene-2,4′-piperidin]-1-amine], the IC50 [1] was < 500 nM and the IC50 [2] was > 5000 nM.

`COc1cnccc1Sc1cnc2nc(N3CCC4(CC3)Cc3ccc(F)cc3[C@H]4N)[nH]c2n1` [Example 182] was tested, and the IC50 [1] was < 500 nM and the IC50 [2] was < 1000 nM.

With `N[C@@H]1c2cc(F)ccc2CC12CCN(c1nc3ncc(Sc4ccncc4Cl)nc3[nH]1)CC2` [Example 183, (S)-1′-(6-((3-chloropyridin-4-yl)thio)-1H-imidazo[4,5-b]pyrazin-2-yl)-6-fluoro-1,3-dihydrospiro[indene-2,4′-piperidin]-1-amine] the IC50 [1] was < 500 nM and the IC50 [2] was < 1000 nM.

For `N[C@@H]1c2cc(F)ccc2CC12CCN(c1nc3ncc(Sc4cccc5c4OCCN5)nc3[nH]1)CC2` [Example 184, (S)-1′-(6-((3,4-dihydro-2H-benzo[b][1,4]oxazin-8-yl)thio)-1H-imidazo[4,5-b]pyrazin-2-yl)-6-fluoro-1,3-dihydrospiro[indene-2,4′-piperidin]-1-amine], the IC50 [1] was < 500 nM and the IC50 [2] was < 1000 nM.

`Nc1cc(Sc2cnc3nc(N4CCC5(CC4)Cc4ccccc4[C@H]5N)[nH]c3n2)c(Cl)cn1` [Example 185, (S)-1′-(6-((2-amino-5-chloropyridin-4-yl)thio)-1H-imidazo[4,5-b]pyrazin-2-yl)-1,3-dihydrospiro[indene-2,4′-piperidin]-1-amine] was tested, and the IC50 [1] was < 500 nM and the IC50 [2] was < 1000 nM.

For `COc1cc2c(cc1F)[C@@H](N)C1(CCN(c3nc4ncc(Sc5ccncc5Cl)nc4[nH]3)CC1)C2` [Example 186, (S)-1′-(6-((3-chloropyridin-4-yl)thio)-1H-imidazo[4,5-b]pyrazin-2-yl)-6-fluoro-5-methoxy-1,3-dihydrospiro[indene-2,4′-piperidin]-1-amine], the IC50 [1] was < 500 nM and the IC50 [2] was < 1000 nM.

`N[C@@H]1c2cc(F)ccc2CC12CCN(c1nc3ncc(Sc4ccncc4F)nc3[nH]1)CC2` [Example 187, (S)-6-fluoro-1′-(6-((3-fluoropyridin-4-yl)thio)-1H-imidazo[4,5-b]pyrazin-2-yl)-1,3-dihydrospiro[indene-2,4′-piperidin]-1-amine] was tested, and the IC50 [1] was < 500 nM and the IC50 [2] was < 1000 nM.

In the case of `Nc1nccc(Sc2cnc3[nH]c(N4CCC5(CC4)Cc4cc(F)c(F)cc4[C@H]5N)nc3n2)c1Cl` [Example 188, (S)-1′-(5-((2-amino-3-chloropyridin-4-yl)thio)-1H-imidazo[4,5-b]pyrazin-2-yl)-5,6-difluoro-1,3-dihydrospiro[indene-2,4′-piperidin]-1-amine], the IC50 [1] is reported as < 500 nM and the IC50 [2] is reported as < 1000 nM.

With `N[C@@H]1c2cc(F)c(F)cc2CC12CCN(c1nc3nc(Sc4ccnc(NC5CC5)c4Cl)cnc3[nH]1)CC2` [Example 189, (S)-1′-(5-((3-chloro-2-(cyclopropylamino)pyridin-4-yl)thio)-1H-imidazo[4,5-b]pyrazin-2-yl)-5,6-difluoro-1,3-dihydrospiro[indene-2,4′-piperidin]-1-amine] the IC50 [1] was < 500 nM and the IC50 [2] was < 1000 nM.

In the case of `COc1c(Sc2cnc3nc(N4CCC5(CC4)Cc4ccc(F)cc4[C@H]5N)[nH]c3n2)ccnc1N` [Example 190, (S)-1′-(6-((2-amino-3-methoxypyridin-4-yl)thio)-1H-imidazo[4,5-b]pyrazin-2-yl)-6-fluoro-1,3-dihydrospiro[indene-2,4′-piperidin]-1-amine], the IC50 [1] is reported as < 500 nM and the IC50 [2] is reported as < 1000 nM.

For `N#CC1CN(c2nccc(Sc3cnc4[nH]c(N5CCC6(CC5)Cc5ccccc5[C@H]6N)nc4n3)c2Cl)C1` [Example 191, (S)-1-(4-((2-(1-amino-1,3-dihydrospiro[indene-2,4′-piperidin]-1′-yl)-1H-imidazo[4,5-b]pyrazin-5-yl)thio)-3-chloropyridin-2-yl)azetidine-3-carbonitrile], the IC50 [1] was < 500 nM and the IC50 [2] was < 1000 nM.

With `N[C@@H]1c2cc(F)ccc2CC12CCN(c1nc3nc(Sc4cccn5ccnc45)cnc3[nH]1)CC2` [Example 192, (S)-6-fluoro-1′-(5-(imidazo[1,2-a]pyridin-8-ylthio)-1H-imidazo[4,5-b]pyrazin-2-yl)-1,3-dihydrospiro[indene-2,4′-piperidin]-1-amine] the IC50 [1] was < 500 nM and the IC50 [2] was 1000 to 5000 nM.

For `N[C@@H]1c2ccccc2CC12CCN(c1nc3nc(Sc4ccc5cc[nH]c5c4)cnc3[nH]1)CC2` [Example 193, (S)-1′-(5-((1H-indol-6-yl)thio)-1H-imidazo[4,5-b]pyrazin-2-yl)-1,3-dihydrospiro[indene-2,4′-piperidin]-1-amine], the IC50 [1] was < 500 nM and the IC50 [2] was 1000 to 5000 nM.

For `N[C@@H]1c2ccccc2CC12CCN(c1nc3ncc(Sc4ccnc5nccnc45)nc3[nH]1)CC2` [Example 194, (S)-1′-(6-(pyrido[2,3-b]pyrazin-8-ylthio)-1H-imidazo[4,5-b]pyrazin-2-yl)-1,3-dihydrospiro[indene-2,4′-piperidin]-1-amine], the IC50 [1] was < 500 nM and the IC50 [2] was < 1000 nM.

For `Cc1nccc(Sc2cnc3nc(N4CCC5(CC4)Cc4ccccc4[C@H]5N)[nH]c3n2)c1Cl` [Example 195, (S)-1′-(6-((3-chloro-2-methylpyridin-4-yl)thio)-1H-imidazo[4,5-b]pyrazin-2-yl)-1,3-dihydrospiro[indene-2,4′-piperidin]-1-amine], the IC50 [1] was < 500 nM and the IC50 [2] was < 1000 nM.

With `N[C@@H]1c2ccncc2CC12CCN(c1nc3ncc(Sc4ccnc(NC5CC5)c4Cl)nc3[nH]1)CC2` [Example 196, (S)-1′-(5-((3-chloro-2-(cyclopropylamino)pyridin-4-yl)thio)-1H-imidazo[4,5-b]pyrazin-2-yl)-5,7-dihydrospiro[cyclopenta[c]pyridine-6,4′-piperidin]-5-amine] the IC50 [1] was < 500 nM and the IC50 [2] was < 1000 nM.

In the case of `N[C@H]1c2ccncc2CC12CCN(c1nc3nc(Sc4ccnc(NC5CC5)c4Cl)cnc3[nH]1)CC2` [Example 197, (R)-1′-(5-((3-chloro-2-(cyclopropylamino)pyridin-4-yl)thio)-1H-imidazo[4,5-b]pyrazin-2-yl)-5,7-dihydrospiro[cyclopenta[c]pyridine-6,4′-piperidin]-5-amine], the IC50 [1] is reported as < 500 nM and the IC50 [2] is reported as 1000 to 5000 nM.

In the case of `N[C@@H]1c2ccccc2CC12CCN(c1nc3ncc(Sc4cccc5[nH]ccc45)nc3[nH]1)CC2` [Example 198, (S)-1′-(6-((1H-indol-4-yl)thio)-1H-imidazo[4,5-b]pyrazin-2-yl)-1,3-dihydrospiro[indene-2,4′-piperidin]-1-amine], the IC50 [1] is reported as < 500 nM and the IC50 [2] is reported as < 1000 nM.

For `Nc1nccc(Sc2cnc3nc(N4CCC5(CC4)Cc4cc(F)ccc4[C@H]5N)[nH]c3n2)c1Cl` [Example 199, (S)-1′-(6-((2-amino-3-chloropyridin-4-yl)thio)-1H-imidazo[4,5-b]pyrazin-2-yl)-5-fluoro-1,3-dihydrospiro[indene-2,4′-piperidin]-1-amine], the IC50 [1] was < 500 nM and the IC50 [2] was < 1000 nM.

For `CCOc1cnccc1Sc1cnc2[nH]c(N3CCC4(CC3)Cc3ccccc3[C@H]4N)nc2n1` [Example 200, (S)-1′-(5-((3-ethoxypyridin-4-yl)thio)-1H-imidazo[4,5-b]pyrazin-2-yl)-1,3-dihydrospiro[indene-2,4′-piperidin]-1-amine], the IC50 [1] was < 500 nM and the IC50 [2] was < 1000 nM.

`CNc1nccc(Sc2cnc3[nH]c(N4CCC5(CC4)Cc4ccccc4[C@H]5N)nc3n2)c1C#N` [Example 201, (S)-4-((2-(1-amino-1,3-dihydrospiro[indene-2,4′-piperidin]-1′-yl)-1H-imidazo[4,5-b]pyrazin-5-yl)thio)-2-(methylamino)nicotinonitrile] was tested, and the IC50 [1] was < 500 nM and the IC50 [2] was < 1000 nM.

`Cn1cc2cccc(Sc3cnc4[nH]c(N5CCC6(CC5)Cc5ccccc5[C@H]6N)nc4n3)c2n1` [Example 202, (S)-1′-(5-((2-methyl-2H-indazol-7-yl)thio)-1H-imidazo[4,5-b]pyrazin-2-yl)-1,3-dihydrospiro[indene-2,4′-piperidin]-1-amine] was tested, and the IC50 [1] was < 500 nM and the IC50 [2] was 1000 to 5000 nM.
